Each compound was assayed on S-49 mouse lymphoma cells (assay: Blocking of isoproterenol-promoted cyclic AMP accumulation in S-49 mouse lymphoma cells). Conditions: relative to practolol; blocking isoproterenol-promoted cyclic AMP release in S49 cells.
Format: cell-based
From the text: The β-adrenergic antagonist derivatives can be tested for biological and pharmacological activity by an in vitro technique. In this test a measurement is taken of the concentration of the derivative required to block a specified dose of isoproterenol (β-adrenergic agonist) in S-49 mouse lymphoma cells as measured by cyclic AMP accumulation therein. Details of the test utilizing S-49 mouse lymphoma cells is set forth in Coffino et al, In Vitro, 14, #1, 140 (1978). The activities of the β-adrenergic derivatives are expressed as the relative potencies of the unmodified drug, i.e., the β-adrenergic antagonist to that of the derivative drug.
With `CC(=O)Nc1ccc(OCC(O)CNC(C)CCCCC(=O)Nc2ccc(C)cc2)cc1` (stereo not shown) [Compound 17, 6-[3-(4-Acetamidophenoxy)-2-Hydroxypropylamino]-Heptanoic Acid p-Toluide] the “Rel. Potency (potency relative to the parent compound)” value was 2.1 × 10^1. With `CC(=O)Nc1ccc(OCC(O)CNC(C)CCCCC(=O)Nc2ccc(C(F)(F)F)cc2)cc1` (stereo not shown) [Compound 18, 6-[3-(4-Acetamidophenoxy)-2-Hydroxypropylamino]-Heptanoic Acid p-Trifluoromethylanilide] the “Rel. Potency (potency relative to the parent compound)” value was 6.0. `CC(=O)Nc1ccc(OCC(O)CNC(C)CCCCC(=O)Nc2ccc(C[C@H](NC(C)=O)C(=O)NCCCO)cc2)cc1` (stereo partly drawn) [Compound 19, N^α -Acetyl-p-{6-(3-[4-Acetamidophenoxy]-2-Hydroxypropylamino)-Heptanoylamino}-L-Phenylalanyl-3-Hydroxypropylamide] was tested, and the “Rel. Potency (potency relative to the parent compound)” value was 1.5.

Same assay, conditions: relative to propranolol; blocking isoproterenol-promoted cyclic AMP release in S49 cells
`Cc1ccc(NC(=O)CCC(C)NCC(O)COc2cccc3ccccc23)cc1` (stereo not shown) [Compound 7, 4-[3-(1-Naphthyloxy)-2-Hydroxypropylamino]-Pentanoic Acid p-Toluide] was tested, and the “Rel. Potency (potency relative to the parent compound)” value was 6.8 × 10^-5. In the case of `Cc1ccc(NC(=O)CCCC(C)NCC(O)COc2cccc3ccccc23)cc1` (stereo not shown) [Compound 8, 5-[3-(1-Naphthyloxy)-2-Hydroxypropylamino]-Hexanoic Acid p-Toluide], the “Rel. Potency (potency relative to the parent compound)” value is reported as 6.8 × 10^-5. `Cc1ccc(NC(=O)CCCCC(C)NCC(O)COc2cccc3ccccc23)cc1` (stereo not shown) [Compound 9, 6-[3-(1-Naphthyloxy)-2-Hydroxypropylamino]-Heptanoic Acid p-Toluide] was tested, and the “Rel. Potency (potency relative to the parent compound)” value was 4.5 × 10^2. `Cc1ccc(NC(=O)CCCCCC(C)NCC(O)COc2cccc3ccccc23)cc1` (stereo not shown) [Compound 10, 7-[3-(1-Naphthyloxy)-2-Hydroxypropylamino]-Octanoic Acid-p-Toluide] was tested, and the “Rel. Potency (potency relative to the parent compound)” value was 3.7 × 10^-2. For `CC(CCCCC(=O)Nc1ccc(C(F)(F)F)cc1)NCC(O)COc1cccc2ccccc12` (stereo not shown) [Compound 11, 6-[3-(1-Naphthyloxy)-2-Hydroxypropylamino]-Heptanoic Acid p-Trifluoromethylanilide], the “Rel. Potency (potency relative to the parent compound)” value was 8.75. With `CC(CCCCC(=O)Nc1ccc(CCC(=O)O)cc1)NCC(O)COc1cccc2ccccc12` (stereo not shown) [Compound 12, 3-{p-(6-[3-(1-Naphthyloxy)-2-Hydroxypropylamino]Heptanoylamino)-Phenyl}-Propionic Acid] the “Rel. Potency (potency relative to the parent compound)” value was 8.8 × 10^-1. `CCCCNC(=O)CCc1ccc(NC(=O)CCCCC(C)NCC(O)COc2cccc3ccccc23)cc1` (stereo not shown) [Compound 13, 3-{p-(6-[3-(1-Naphthyloxy)-2-Hydroxypropylamino]Heptanoylamino)-Phenyl}-Propionic Acid n-Butylamide] was tested, and the “Rel. Potency (potency relative to the parent compound)” value was 4.5 × 10^-2. `CCCCNC(=O)CCCCC(C)NCC(O)COc1cccc2ccccc12` (stereo not shown) [Compound 14, 6-[3-(1-Naphthyloxy)-2-Hydroxypropylamino]-Heptanoic Acid n-Butylamide] was tested, and the “Rel. Potency (potency relative to the parent compound)” value was 9.1 × 10^-1. For `CC(=O)N[C@@H](Cc1ccc(NC(=O)CCCCC(C)NCC(O)COc2cccc3ccccc23)cc1)C(=O)NCCCO` (stereo partly drawn) [Compound 15, N^α -Acetyl-p-{6-(3-[1-Naphthyloxy]-2-Hydroxypropylamino)-Heptanoylamino}-L-Phenylalanyl-3-Hydroxypropylamide], the “Rel. Potency (potency relative to the parent compound)” value was 1.75 × 10^-1. `CNC(=O)CNC(=O)[C@H](Cc1ccc(NC(=O)CCCCC(C)NCC(O)COc2cccc3ccccc23)cc1)NC(=O)OC(C)(C)C` (stereo partly drawn) [Compound 16, N^α -t-Butyloxycarbonyl-p-{6-(3-[1-Naphthyloxy]-2-Hydroxypropylamino)-Heptanoylamino}-L-Phenylalanyl-Glycyl-Methylamide] was tested, and the “Rel. Potency (potency relative to the parent compound)” value was 7.8 × 10^-4.
